Measured values as given in PubChem BioAssay AID192 (DTP/NCI, 2004).
“And” between values parts separate entries of the source, which are not always exact repeats. Identical values can stand only once. Toxic doses and inconclusive results are not listed.

Test system: BDF1 mice, B16 melanoma ip, median survival T/C
Assay: NCI In Vivo Anticancer Drug Screen. Data for tumor model B16 Melanoma (intraperitoneal) in B6D2F1 (BDF1) mice
Settings: endpoint: median survival time, higher = longer survival
Outline: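 Each result divides a survival or tumor-size measurement in the compound-treated group by the same measurement in the vehicle group.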

[1] = dose: 25.0 mg/kg/injection, schedule: Q01DX009 (ip), vehicle: Klucel (hydroxypropylcellulose) (HPC)
[2] = dose: 50.0 mg/kg/injection, schedule: Q01DX009 (ip), vehicle: Klucel (hydroxypropylcellulose) (HPC)
[3] = dose: 3.12 mg/kg/injection, schedule: Q01DX009 (ip), vehicle: saline
[4] = dose: 6.25 mg/kg/injection, schedule: Q01DX009 (ip), vehicle: saline
[5] = dose: 12.5 mg/kg/injection, schedule: Q01DX009 (ip), vehicle: saline
[6] = dose: 25.0 mg/kg/injection, schedule: Q01DX009 (ip), vehicle: saline
[7] = dose: 50.0 mg/kg/injection, schedule: Q01DX009 (ip), vehicle: saline
[8] = dose: 50.0 mg/kg/injection, schedule: Q04DX003 (ip), vehicle: saline
[9] = dose: 0.78 mg/kg/injection, schedule: Q01DX009 (ip), vehicle: saline with Tween-80
[10] = dose: 1.56 mg/kg/injection, schedule: Q01DX009 (ip), vehicle: saline with Tween-80
[11] = dose: 3.12 mg/kg/injection, schedule: Q01DX009 (ip), vehicle: saline with Tween-80
[12] = dose: 6.25 mg/kg/injection, schedule: Q01DX009 (ip), vehicle: saline with Tween-80
[13] = dose: 12.5 mg/kg/injection, schedule: Q01DX009 (ip), vehicle: saline with Tween-80
[14] = dose: 25.0 mg/kg/injection, schedule: Q01DX009 (ip), vehicle: saline with Tween-80
[15] = dose: 3.13 mg/kg/injection, schedule: Q01DX009 (ip), vehicle: saline with Tween-80
[16] = dose: 100.0 mg/kg/injection, schedule: Q01DX009 (ip), vehicle: saline with Tween-80
[17] = dose: 200.0 mg/kg/injection, schedule: Q01DX009 (ip), vehicle: saline with Tween-80
[18] = dose: 50.0 mg/kg/injection, schedule: Q01DX009 (ip), vehicle: saline with Tween-80
[19] = dose: 200.0 mg/kg/injection, schedule: Q01DX009 (ip), vehicle: Klucel (hydroxypropylcellulose) (HPC)
[20] = dose: 100.0 mg/kg/injection, schedule: Q01DX009 (ip), vehicle: Klucel (hydroxypropylcellulose) (HPC)

For `CCCCCCCCCCCCCCCCCCN(C)C`, the T/C (dose: 6.25 mg/kg/injection, schedule: Q01DX009 (ip), vehicle: Klucel (hydroxypropylcellulose) (HPC)) was 104 % of control, the T/C (dose: 12.5 mg/kg/injection, schedule: Q01DX009 (ip), vehicle: Klucel (hydroxypropylcellulose) (HPC)) was 107 % of control and the T/C [1] was 89 % of control and 101 % of control.
`O=C1OC(c2ccc([N+](=O)[O-])cc2)=N/C1=C\c1ccc(Cl)cc1` was tested, and the T/C [1] was 102 % of control and the T/C [2] was 86 % of control.
With `C=C(NC(=O)C(=C)NC(=O)c1csc(C2=NC3c4csc(n4)C4NC(=O)c5csc(n5)C(C(C)(O)C(C)O)NC(=O)C5CSC(=N5)/C(=C/C)NC(=O)C(C(C)O)NC(=O)c5csc(n5)C3(CC2)NC(=O)C(C)NC(=O)C(=C)NC(=O)C(=C)NC(=O)C(C(C)C)NC2C=Cc3c(C(C)O)cc(nc3C2O)C(=O)OC4C)n1)C(N)=O` (configuration not stated) the T/C [3] was 114 % of control, the T/C [4] was 104 % of control and 117 % of control and the T/C [5] was 109 % of control and 114 % of control. The T/C [6] was 110 % of control and 120 % of control, the T/C [7] was 119 % of control and 120 % of control and the T/C (dose: 100.0 mg/kg/injection, schedule: Q01DX009 (ip), vehicle: saline) was 123 % of control.
In the case of `CC1(C)N=C(N)N=C(N)N1c1ccc(OCC(=O)Nc2ccc(S(=O)(=O)F)cc2)c(Cl)c1`, the T/C [8] is reported as 107 % of control and the T/C (dose: 100.0 mg/kg/injection, schedule: Q04DX003 (ip), vehicle: saline) is reported as 124 % of control.
With `CC(=O)OCC(OC(C)=O)C(OC(C)=O)C(OC(C)=O)C(C#N)OC(C)=O` (configuration not stated) the T/C (dose: 100.0 mg/kg/injection, schedule: Q01DX005 (ip), vehicle: saline with Tween-80) was 104 % of control, the T/C (dose: 100.0 mg/kg/injection, schedule: Q04DX003 (ip), vehicle: saline with Tween-80) was 86 % of control and the T/C (dose: 200.0 mg/kg/injection, schedule: Q01DX005 (ip), vehicle: saline with Tween-80) was 100 % of control. The T/C (dose: 200.0 mg/kg/injection, schedule: Q04DX003 (ip), vehicle: saline with Tween-80) was 97 % of control and the T/C (dose: 400.0 mg/kg/injection, schedule: Q01DX005 (ip), vehicle: saline with Tween-80) was 97 % of control.
For `C[CH2][Sn]1([CH2]C)[O]OC(c2ccccc2)[O]1` (configuration not stated), the T/C [9] was 106 % of control, the T/C [10] was 105 % of control and 111 % of control and the T/C [11] was 109 % of control and 112 % of control. The T/C [12] was 113 % of control and 116 % of control and the T/C [13] was 101 % of control and 117 % of control.
With `CCOC(=O)/N=[N+](\[O-])c1ccccc1` the T/C [11] was 97 % of control, the T/C [12] was 100 % of control and the T/C [13] was 105 % of control. The T/C [14] was 104 % of control.
In the case of `O=c1cc(O)c1=O`, the T/C [9] is reported as 106 % of control, the T/C [10] is reported as 104 % of control and the T/C [15] is reported as 110 % of control. For the same molecule, the T/C [12] was 109 % of control and the T/C [13] was 93 % of control.
In the case of `COc1ccccc1NC(=O)Oc1ccc(OCc2ccccc2)cc1`, the T/C [16] is reported as 105 % of control, the T/C [17] is reported as 97 % of control and the T/C (dose: 400.0 mg/kg/injection, schedule: Q01DX009 (ip), vehicle: saline with Tween-80) is reported as 92 % of control.
For `CC(C)=CCC/C(C)=C\CCl`, the T/C [14] was 105 % of control and the T/C [18] was 101 % of control.
In the case of `CSc1nc2cc(C)c(C)cc2[nH]1`, the T/C [14] is reported as 100 % of control, the T/C [18] is reported as 97 % of control and the T/C [16] is reported as 97 % of control and 102 % of control.
In the case of `O=[N+]([O-])c1ccc(CSc2ncnc3c2ncn3C2OC(CO)C(O)C2O)cc1` (configuration not stated), the T/C [15] is reported as 90 % of control, the T/C [12] is reported as 90 % of control and the T/C [13] is reported as 90 % of control. The T/C [14] was 86 % of control, the T/C [18] was 86 % of control and the T/C [16] was 79 % of control. The T/C [17] was 75 % of control.
With `C[CH2][Sn]([F])([CH2]C)[CH2]C` the T/C (dose: 0.37 mg/kg/injection, schedule: Q01DX009 (ip), vehicle: saline with Tween-80) was 104 % of control, the T/C (dose: 0.75 mg/kg/injection, schedule: Q01DX009 (ip), vehicle: saline with Tween-80) was 109 % of control and the T/C (dose: 1.5 mg/kg/injection, schedule: Q01DX009 (ip), vehicle: saline with Tween-80) was 102 % of control. For the same molecule, the T/C (dose: 3.0 mg/kg/injection, schedule: Q01DX009 (ip), vehicle: saline with Tween-80) was 94 % of control.
With `OCCc1ccccc1` the T/C (dose: 31.3 mg/kg/injection, schedule: Q01DX009 (ip), vehicle: saline with Tween-80) was 93 % of control, the T/C [18] was 100 % of control and the T/C (dose: 62.5 mg/kg/injection, schedule: Q01DX009 (ip), vehicle: saline with Tween-80) was 95 % of control. For the same molecule, the T/C [16] was 97 % of control, the T/C (dose: 125.0 mg/kg/injection, schedule: Q01DX009 (ip), vehicle: saline with Tween-80) was 100 % of control and the T/C [17] was 105 % of control. For the same molecule, the T/C (dose: 250.0 mg/kg/injection, schedule: Q01DX009 (ip), vehicle: saline with Tween-80) was 93 % of control.
With `COC(=O)C1=CO[C@@H](C)[C@@H]2Cn3ccc4c5ccccc5nc-4c3C[C@H]12` the T/C [14] was 94 % of control and the T/C [18] was 89 % of control.
With `Cc1ccc([N+](=O)[O-])c(O)c1[N+](=O)[O-]` the T/C [2] was 100 % of control and the T/C [19] was 90 % of control.
In the case of `CC[C@]1(O)C[C@H](OC2CC(N(C)C)C(OC3CC(O)C(O)C(C)O3)C(C)O2)c2c(cc3c(c2O)C(=O)c2c(O)ccc(O)c2C3=O)[C@H]1C(=O)OC` (some centres not stated), the T/C (dose: 0.2 mg/kg/injection, schedule: Q01DX009 (ip), vehicle: carboxymethylcellulose (CMC)) is reported as 113 % of control, the T/C (dose: 0.25 mg/kg/injection, schedule: Q01DX009 (ip), vehicle: saline with Tween-80) is reported as 120 % of control and the T/C (dose: 0.4 mg/kg/injection, schedule: Q01DX009 (ip), vehicle: carboxymethylcellulose (CMC)) is reported as 94 % of control. The T/C (dose: 1.0 mg/kg/injection, schedule: Q01DX009 (ip), vehicle: saline with Tween-80) was 159 % of control and the T/C (dose: 2.0 mg/kg/injection, schedule: Q01DX009 (ip), vehicle: saline with Tween-80) was 179 % of control.
`O=C1NNC(=O)NN1` was tested, and the T/C [20] was 118 % of control and the T/C [19] was 106 % of control.
In the case of `Cc1n(CC(C)C)c2c([n+]1CC(=O)c1ccc([N+](=O)[O-])cc1)C(=O)c1ccccc1C2=O`, the T/C (dose: 0.1 mg/kg/injection, schedule: Q01DX009 (ip), vehicle: saline) is reported as 95 % of control, the T/C (dose: 0.2 mg/kg/injection, schedule: Q01DX009 (ip), vehicle: saline) is reported as 97 % of control and the T/C (dose: 0.4 mg/kg/injection, schedule: Q01DX009 (ip), vehicle: saline) is reported as 97 % of control. The T/C (dose: 0.8 mg/kg/injection, schedule: Q01DX009 (ip), vehicle: saline) was 88 % of control, the T/C (dose: 1.2 mg/kg/injection, schedule: Q01DX009 (ip), vehicle: Klucel (hydroxypropylcellulose) (HPC)) was 93 % of control and the T/C (dose: 1.25 mg/kg/injection, schedule: Q01DX009 (ip), vehicle: saline with Tween-80) was 86 % of control. For the same molecule, the T/C (dose: 1.8 mg/kg/injection, schedule: Q01DX009 (ip), vehicle: Klucel (hydroxypropylcellulose) (HPC)) was 93 % of control, the T/C (dose: 2.5 mg/kg/injection, schedule: Q01DX009 (ip), vehicle: saline with Tween-80) was 86 % of control and the T/C (dose: 3.0 mg/kg/injection, schedule: Q01DX009 (ip), vehicle: Klucel (hydroxypropylcellulose) (HPC)) was 87 % of control. The T/C (dose: 5.0 mg/kg/injection, schedule: Q01DX009 (ip), vehicle: Klucel (hydroxypropylcellulose) (HPC)) was 93 % of control.
`C=CCC(N)Cc1ccccc1` (configuration not stated) was tested, and the T/C [3] was 105 % of control, the T/C (dose: 3.12 mg/kg/injection, schedule: Q04DX003 (ip), vehicle: saline) was 112 % of control and the T/C [4] was 105 % of control. The T/C (dose: 6.25 mg/kg/injection, schedule: Q04DX003 (ip), vehicle: saline) was 105 % of control, the T/C [5] was 111 % of control and the T/C (dose: 12.5 mg/kg/injection, schedule: Q04DX003 (ip), vehicle: saline) was 97 % of control. The T/C [6] was 100 % of control, the T/C (dose: 25.0 mg/kg/injection, schedule: Q04DX003 (ip), vehicle: saline) was 100 % of control and the T/C [7] was 110 % of control. The T/C [8] was 100 % of control.
`C=CCNC(=S)NCC=C` was tested, and the T/C [20] was 97 % of control, the T/C [19] was 92 % of control and the T/C (dose: 400.0 mg/kg/injection, schedule: Q01DX009 (ip), vehicle: Klucel (hydroxypropylcellulose) (HPC)) was 102 % of control.
`CC(Br)C(=O)NC(CC(N)=O)C(=O)O` (configuration not stated) was tested, and the T/C [18] was 91 % of control, the T/C [16] was 104 % of control and the T/C [17] was 93 % of control.
For `N=Cc1c(O)[nH]c(=O)[nH]c1=O`, the T/C (dose: 150.0 mg/kg/injection, schedule: Q01DX009 (ip), vehicle: Klucel (hydroxypropylcellulose) (HPC)) was 87 % of control and the T/C (dose: 300.0 mg/kg/injection, schedule: Q01DX009 (ip), vehicle: Klucel (hydroxypropylcellulose) (HPC)) was 95 % of control.
